Laboratory results as given in the supplement of paper PMC10307832.

How the values were obtained:
Assay in all cases: relative viability (nuclei count vs DMSO), 5 days (fraction); higher = more cells survive
IMD-0354 + Navitoclax = compound: O=C(Nc1cc(C(F)(F)F)cc(C(F)(F)F)c1)c1cc(Cl)ccc1O [IMD-0354] + CC1(C)CCC(c2ccc(Cl)cc2)=C(CN2CCN(c3ccc(C(=O)NS(=O)(=O)c4ccc(N[C@H](CCN5CCOCC5)CSc5ccccc5)c(S(=O)(=O)C(F)(F)F)c4)cc3)CC2)C1 [Navitoclax] (partner 0.5 µM)
Method in brief: (§1)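 For relative viability, nuclei counts in treated wells were divided by those in vehicle wells. Lung cancer cell lines had been pin-tool dosed in 1536-well plates the day after seeding and cultured for 5 days, then fixed and stained in one step (final 0.05% Triton X-100, 1% formaldehyde, 1 ug/ml Hoechst) and imaged at 4×. Doses were one drug alone or a fixed anchor-drug dose plus five library-drug doses (not always all listed) in √10 steps, and values are duplicate-plate medians.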

IMD-0354 + Crizotinib = compound: O=C(Nc1cc(C(F)(F)F)cc(C(F)(F)F)c1)c1cc(Cl)ccc1O [IMD-0354] + C[C@@H](Oc1cc(-c2cnn(C3CCNCC3)c2)cnc1N)c1c(Cl)ccc(F)c1Cl [Crizotinib] (partner 1 µM)
Method in brief: as §1

CX-5461 + Tozasertib = compound: Cc1cnc(CNC(=O)c2c(=O)c3ccc(N4CCCN(C)CC4)nc3n3c2sc2ccccc23)cn1 [CX-5461] + Cc1cc(Nc2cc(N3CCN(C)CC3)nc(Sc3ccc(NC(=O)C4CC4)cc3)n2)n[nH]1 [Tozasertib] (partner 0.1 µM)
Method in brief: as §1

IMD-0354 + Pemetrexed = compound: O=C(Nc1cc(C(F)(F)F)cc(C(F)(F)F)c1)c1cc(Cl)ccc1O [IMD-0354] + Nc1nc2[nH]cc(CCc3ccc(C(=O)N[C@@H](CCC(=O)O)C(=O)O)cc3)c2c(=O)[nH]1 [Pemetrexed] (partner 0.2 µM)
Method in brief: as §1

| Cell Line | relative viability (IMD-0354 + Navitoclax; first compound 0.04 µM) | relative viability (IMD-0354 + Navitoclax; first compound 0.1265 µM) | relative viability (IMD-0354 + Navitoclax; first compound 0.4 µM) | relative viability (IMD-0354 + Navitoclax; first compound 1.265 µM) | relative viability (IMD-0354 + Navitoclax; first compound 4 µM) | relative viability (IMD-0354 + Crizotinib; first compound 0.04 µM) | relative viability (IMD-0354 + Crizotinib; first compound 0.1265 µM) | relative viability (IMD-0354 + Crizotinib; first compound 0.4 µM) | relative viability (IMD-0354 + Crizotinib; first compound 1.265 µM) | relative viability (IMD-0354 + Crizotinib; first compound 4 µM) | relative viability (CX-5461 + Tozasertib; first compound 0.01 µM) | relative viability (CX-5461 + Tozasertib; first compound 0.03162 µM) | relative viability (CX-5461 + Tozasertib; first compound 0.1 µM) | relative viability (CX-5461 + Tozasertib; first compound 0.3162 µM) | relative viability (CX-5461 + Tozasertib; first compound 1 µM) | relative viability (IMD-0354 + Pemetrexed; first compound 0.04 µM) | relative viability (IMD-0354 + Pemetrexed; first compound 0.1265 µM) | relative viability (IMD-0354 + Pemetrexed; first compound 0.4 µM) | relative viability (IMD-0354 + Pemetrexed; first compound 1.265 µM) | relative viability (IMD-0354 + Pemetrexed; first compound 4 µM) |
| --- | --- | --- | --- | --- | --- | --- | --- | --- | --- | --- | --- | --- | --- | --- | --- | --- | --- | --- | --- | --- |
| NCI-H1703 | 1.37 | 1.12 | 0.843 | 0.131 | 0.115 | 0.9 | 0.626 | 0.494 | 0.254 | 0.215 |  |  |  |  |  |  |  |  |  |  |
| LCLC-103H |  |  |  |  |  | 1.02 | 1.18 | 0.734 | 0.703 | 0.352 | 0.457 | 0.527 | 0.473 | 0.391 | 0.477 | 0.518 | 0.491 | 0.446 | 0.317 | 0.266 |
| Calu-6 | 0.94 | 0.903 | 0.355 | 0.122 | 0.104 | 0.842 | 0.689 | 0.506 | 0.276 | 0.164 |  |  |  |  |  |  |  |  |  |  |
| NCI-H2342 |  |  |  |  |  |  |  |  |  |  | 0.521 | 0.524 | 0.462 | 0.497 | 0.566 | 0.814 | 0.822 | 0.585 | 0.508 | 0.408 |
| EBC-1 | 0.41 | 0.374 | 0.334 | 0.144 | 0.185 | 0.19 | 0.204 | 0.208 | 0.209 | 0.177 |  |  |  |  |  |  |  |  |  |  |
| NCI-H1299 | 0.981 | 1.08 | 0.259 | 0.442 | 0.146 | 0.943 | 1 | 0.518 | 0.294 | 0.166 |  |  |  |  |  |  |  |  |  |  |
| NCI-H522 |  |  |  |  |  |  |  |  |  |  | 0.521 | 0.44 | 0.597 |  | 0.646 | 1.35 | 0.895 | 0.91 | 0.62 | 0.397 |
| IA-LM | 0.778 | 0.662 | 0.381 | 0.122 | 0.0656 | 0.948 | 0.974 | 0.51 | 0.0996 | 0.142 |  |  |  |  |  |  |  |  |  |  |
| NCI-H358 |  |  |  |  |  | 0.6 | 0.611 | 0.228 | 0.232 | 0.348 | 0.108 | 0.0952 | 0.117 | 0.103 | 0.0892 | 0.174 | 0.172 | 0.175 | 0.138 | 0.126 |
| NCI-H727 | 0.407 | 0.319 | 0.423 | 0.165 | 0.205 | 0.688 | 0.827 | 0.484 | 0.547 | 0.385 | 0.529 | 0.666 | 0.57 | 0.633 | 0.593 |  |  |  |  |  |
| NCI-H650 |  |  |  |  |  | 0.844 | 0.714 | 0.542 | 0.528 | 0.2 | 0.735 | 0.815 | 0.715 | 0.324 | 0.54 | 1.05 | 0.97 | 0.793 | 0.436 | 0.169 |
| NCI-H661 |  |  |  |  |  | 1.07 | 1.2 | 0.869 | 0.524 | 0.317 | 0.35 | 0.347 | 0.348 | 0.351 | 0.338 | 0.955 | 0.921 | 0.484 | 0.331 | 0.207 |
